For assay [1], the system named is LTP at the hippocampal CA3 to CA1 synapse. Put plainly: LTP induction by HFS, field recordings in acute hippocampal slices of wildtype mice. The format is cell-based, mouse. Conditions: tatCN21 5 μM; AS283 10 or 30 μM; 15 minutes before, washed out 5 minutes after LTP induction. As for the experimental part: Long term potentiation (LTP) is induced by high frequency stimulation (HFS; 2×100 Hz. 10 sec interval, see Materials and Methods) of CA3-CA1 Schaffer collateral pathways in WT mice and is observed by an increase in slope of field excitatory post synaptic potentials (fEPSPs) that persists after the stimulus is removed. When testing the effect of certain agents on LTP induction (i.e., AS283 or tatCN21), slices were incubated with the agents for 15 minutes before LTP induction and washed out 5 minutes after LTP induction.
Hippocampal slice preparation. WT and mutant mouse hippocampal slices were prepared using P56-70 mice. Isoflurane anesthetized mice were rapidly decapitated, and the brain was dissected in ice-cold high sucrose solution containing 220 mM sucrose, 12 mM MgSO4, 10 mM glucose, 0.2 mM CaCl2), 0.5 mM KCl, 0.65 mM NaH2PO4, 13 mM
NaHCO3, and 1.8 mM ascorbate. […]
Extracellular field recordings. […] Data were analyzed using WinLTP software with slope calculated as the initial rise from 10 to 60% of response peak. […] Responses were recorded for 60 min after HFS. Change in slope was calculated as a ratio of the average slope of the 20 min baseline (before HFS). Bar graphs of % fEPSP slope were calculated by averaging the 50-60-minute timepoints post HFS and normalized to baseline.

Assay [2] concerns the target T1, CaMKII/GluN2B co-localization in HEK293 cells (Homo sapiens, UniProt Q9UQM7).
T1 construct: expressed in transfected cells; host or cells: HEK293 cells
Kind of assay: Ionomycin-induced co-localization of GFP-CaMKII and mCherry-2BC in HEK293 cells. The format is cell-based. The following applies: 10 μM inhibitor. As for the experimental part: In a series of exemplary methods, an in vitro kinase assay was used where purified CaMKIIα is incubated at 30° C. with GST-GluA1 alongside ATP. CaMKIIα normally phosphorylates S831 on the GluA1 subunit and this phosphorylation can be measured as a readout of CaMKIIα enzymatic activity (see e.g., FIG. 8B). […] In another exemplary method, binding of purified CaMKIIα to immobilized GST-GluN2B-c was induced by Ca^2+/CaM in the presence of a vehicle (none), 4 mM ADP or with […] AS105. […] At the same time, two exemplary methods were performed to observe ionomycin or chemical LTP (cLTP) induced co-localization of CaMKII and GluN2B either in HEK293 cells co-expressing GFP-CaMKII and mCherry-2BC or dissociated rat hippocampal cultures expressing GFP-CaMKII and mCh-PSD95 intrabody. HEK293 cells, incubating with vehicle or 10 μM AS105, were subjected to ionomycin. Hippocampal cultures, also incubating with either vehicle or 10 μM AS105, were treated with a chemical LTP (cLTP) stimulus (e.g., 100 μM glutamate, 10 μM glycine for 45 seconds). Confocal microscopy images were taken before and after each stimulus.

Another assay deals with MAPK2(h) (Homo sapiens, UniProt P28482). Kind of assay: Kinase panel, residual kinase activity at 1 μM inhibitor. The format is biochemical. The protocol: (§1) In this table, residual kinase activity in the presence of 1 μM of each inhibitor is illustrated as a percentage of maximal activity.
A further assay has as its target Pim-3(h) (Homo sapiens, UniProt Q86V86). The description is as above. Format: biochemical. As for the experimental part: as §1
Another assay has as its target Ret(h) (Homo sapiens, UniProt P07949). The assay is described as above. Format: biochemical. As for the experimental part:
as §1

The next assay deals with JAK2(h) (Homo sapiens, UniProt O60674). The assay is described as above. The format is biochemical. The protocol:
as §1

In a further assay the target is FGFR1(h) (Homo sapiens, UniProt P11362). Described as above. Format: biochemical. As for the experimental part: as §1
A further assay concerns the target CDK2/cyclinE(h) (Homo sapiens, UniProt P24941). Described as above. The format is biochemical. As for the experimental part:
as §1

The target in another assay is PKCδ(h) (Homo sapiens, UniProt Q05655). Described as above. Format: biochemical. As for the experimental part: as §1
Assay [3] addresses T2, CaMKII F89G binding to GluN2B in HEK cells (Homo sapiens, UniProt Q9UQM7, F89G).
T2 construct: expressed in transfected cells; host or cells: HEK cells
Kind of assay: Ionomycin-induced co-localization of GFP-CaMKII F89G and mCh-GluN2B in HEK cells. The format is cell-based. Conditions: 10 μM NM-PP1. The protocol: This conclusion also predicts that the LTP stimulus-induced movement of CaMKII to excitatory synapses should be (i) impaired in the CaMKII F89G mutant; but (ii) normalized by pharmacogenetic rescue with NM-PP1. Indeed, both predictions were observed experimentally (FIGS. 4D-4E).
Live imaging of HEK cells. HEK cells were grown and transfected with expression vectors for GFP-CaMKII mutants and pDisplay-mCh-GluN2B-c tail (2BC) as previously described; the GluN2B construct used included a S1303A mutation to avoid potential complications by differential phosphorylation of this regulatory site in the different conditions with or without kinase inhibitors. GFP-CaMKII colocalization with GluN2B in response to a Ca^2+ stimulus induced by 10 μM ionomycin was monitored for 5-10 min at 32° C. in imaging buffer (0.87× Hanks Balanced Salt Solution, 25 mM Hepes pH 7.4, 2 mM glucose, 2 mM CaCl2), 1 mM MgCl2) by fluorescence microscopy. Images were acquired on a Zeiss Axiovert 200M equipped with a climate control chamber, using SlideBook software (Intelligent Imaging Innovations). Colocalization analysis was performed by calculating the Pearson's correlation (correlation index) of pDisplay-mCh-2BC and GFP-CaMKII within the cytoplasm of HEK cells after background subtraction.

Chain of FGFR1(h) (P11362 22-822): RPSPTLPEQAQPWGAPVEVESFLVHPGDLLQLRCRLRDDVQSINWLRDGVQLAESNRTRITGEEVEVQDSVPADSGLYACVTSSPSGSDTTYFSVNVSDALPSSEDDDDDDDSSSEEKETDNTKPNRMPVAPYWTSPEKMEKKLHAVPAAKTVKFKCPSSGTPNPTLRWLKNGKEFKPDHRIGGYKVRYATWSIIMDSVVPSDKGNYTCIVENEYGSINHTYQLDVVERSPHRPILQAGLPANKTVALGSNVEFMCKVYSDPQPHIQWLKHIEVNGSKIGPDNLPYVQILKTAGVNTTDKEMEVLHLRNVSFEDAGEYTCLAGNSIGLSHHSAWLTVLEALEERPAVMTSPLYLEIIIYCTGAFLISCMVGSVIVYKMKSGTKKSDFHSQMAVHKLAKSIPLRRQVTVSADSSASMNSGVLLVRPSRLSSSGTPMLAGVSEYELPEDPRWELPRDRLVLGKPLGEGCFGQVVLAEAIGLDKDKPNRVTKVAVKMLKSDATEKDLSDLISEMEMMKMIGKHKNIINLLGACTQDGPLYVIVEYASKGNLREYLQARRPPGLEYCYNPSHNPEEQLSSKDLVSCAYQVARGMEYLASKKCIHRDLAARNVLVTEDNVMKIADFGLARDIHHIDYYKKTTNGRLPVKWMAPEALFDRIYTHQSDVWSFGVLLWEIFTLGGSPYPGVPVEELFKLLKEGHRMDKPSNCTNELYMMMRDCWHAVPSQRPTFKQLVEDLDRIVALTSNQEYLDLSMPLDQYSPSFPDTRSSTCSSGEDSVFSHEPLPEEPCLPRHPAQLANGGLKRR
Chain of Ret(h) (P07949 29-1114): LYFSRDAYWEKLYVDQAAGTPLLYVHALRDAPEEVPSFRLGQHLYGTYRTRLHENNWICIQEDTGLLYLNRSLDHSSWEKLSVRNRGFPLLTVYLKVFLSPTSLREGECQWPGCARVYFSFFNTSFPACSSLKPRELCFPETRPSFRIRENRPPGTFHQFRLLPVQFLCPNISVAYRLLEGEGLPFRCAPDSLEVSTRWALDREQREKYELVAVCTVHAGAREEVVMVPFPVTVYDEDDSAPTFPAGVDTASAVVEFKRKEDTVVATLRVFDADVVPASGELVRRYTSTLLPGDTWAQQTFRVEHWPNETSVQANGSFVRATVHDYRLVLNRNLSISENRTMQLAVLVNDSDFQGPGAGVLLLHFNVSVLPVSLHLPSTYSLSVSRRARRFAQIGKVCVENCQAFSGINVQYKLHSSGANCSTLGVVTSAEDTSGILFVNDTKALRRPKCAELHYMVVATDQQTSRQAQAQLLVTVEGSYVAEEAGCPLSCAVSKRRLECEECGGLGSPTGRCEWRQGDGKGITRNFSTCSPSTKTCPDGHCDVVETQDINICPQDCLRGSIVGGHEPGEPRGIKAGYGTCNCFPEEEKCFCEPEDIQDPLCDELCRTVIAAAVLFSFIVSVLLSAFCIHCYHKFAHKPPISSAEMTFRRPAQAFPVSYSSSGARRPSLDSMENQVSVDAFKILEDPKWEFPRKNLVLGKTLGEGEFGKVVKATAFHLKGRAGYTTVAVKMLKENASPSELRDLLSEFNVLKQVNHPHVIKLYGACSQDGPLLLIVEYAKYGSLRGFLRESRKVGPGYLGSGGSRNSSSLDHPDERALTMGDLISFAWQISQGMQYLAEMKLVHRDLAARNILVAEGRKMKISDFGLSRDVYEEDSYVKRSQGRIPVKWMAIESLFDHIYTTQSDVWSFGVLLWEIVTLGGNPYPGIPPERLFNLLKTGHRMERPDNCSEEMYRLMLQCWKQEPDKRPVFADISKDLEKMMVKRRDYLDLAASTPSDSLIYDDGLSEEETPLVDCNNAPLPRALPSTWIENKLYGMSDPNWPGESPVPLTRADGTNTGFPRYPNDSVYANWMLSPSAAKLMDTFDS
T1 sequence (Q9UQM7 whole entry): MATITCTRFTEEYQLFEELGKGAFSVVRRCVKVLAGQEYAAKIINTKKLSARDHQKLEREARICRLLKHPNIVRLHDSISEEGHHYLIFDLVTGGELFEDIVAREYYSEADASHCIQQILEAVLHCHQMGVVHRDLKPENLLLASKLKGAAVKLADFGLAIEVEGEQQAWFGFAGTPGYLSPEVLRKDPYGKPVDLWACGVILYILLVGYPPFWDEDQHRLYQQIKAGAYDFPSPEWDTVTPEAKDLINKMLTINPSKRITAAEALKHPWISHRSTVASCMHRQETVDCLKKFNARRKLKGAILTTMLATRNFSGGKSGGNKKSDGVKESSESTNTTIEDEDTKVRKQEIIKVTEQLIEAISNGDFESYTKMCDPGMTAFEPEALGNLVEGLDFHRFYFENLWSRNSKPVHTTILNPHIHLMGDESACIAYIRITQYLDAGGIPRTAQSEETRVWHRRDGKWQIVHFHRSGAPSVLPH
T1 sequence (Q13224 836-1484 S1303A partner limits assumed): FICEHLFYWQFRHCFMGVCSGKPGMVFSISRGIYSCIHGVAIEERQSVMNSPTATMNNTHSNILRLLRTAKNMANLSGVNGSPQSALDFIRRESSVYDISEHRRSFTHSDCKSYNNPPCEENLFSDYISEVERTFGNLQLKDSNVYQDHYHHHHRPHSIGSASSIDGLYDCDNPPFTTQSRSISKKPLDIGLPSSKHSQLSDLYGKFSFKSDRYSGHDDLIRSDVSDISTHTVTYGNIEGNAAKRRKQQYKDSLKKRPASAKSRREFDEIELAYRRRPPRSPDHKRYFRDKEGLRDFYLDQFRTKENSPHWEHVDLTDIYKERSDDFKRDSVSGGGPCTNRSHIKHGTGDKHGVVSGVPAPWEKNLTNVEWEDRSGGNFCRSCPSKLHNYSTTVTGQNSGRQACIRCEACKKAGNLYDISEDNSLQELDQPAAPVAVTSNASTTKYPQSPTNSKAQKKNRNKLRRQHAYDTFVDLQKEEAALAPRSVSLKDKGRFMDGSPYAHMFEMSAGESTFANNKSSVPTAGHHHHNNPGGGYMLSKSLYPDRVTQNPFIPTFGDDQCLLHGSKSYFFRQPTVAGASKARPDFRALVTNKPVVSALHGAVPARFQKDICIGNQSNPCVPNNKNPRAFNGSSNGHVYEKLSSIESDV
Chain of PKCδ(h) (Q05655 whole entry): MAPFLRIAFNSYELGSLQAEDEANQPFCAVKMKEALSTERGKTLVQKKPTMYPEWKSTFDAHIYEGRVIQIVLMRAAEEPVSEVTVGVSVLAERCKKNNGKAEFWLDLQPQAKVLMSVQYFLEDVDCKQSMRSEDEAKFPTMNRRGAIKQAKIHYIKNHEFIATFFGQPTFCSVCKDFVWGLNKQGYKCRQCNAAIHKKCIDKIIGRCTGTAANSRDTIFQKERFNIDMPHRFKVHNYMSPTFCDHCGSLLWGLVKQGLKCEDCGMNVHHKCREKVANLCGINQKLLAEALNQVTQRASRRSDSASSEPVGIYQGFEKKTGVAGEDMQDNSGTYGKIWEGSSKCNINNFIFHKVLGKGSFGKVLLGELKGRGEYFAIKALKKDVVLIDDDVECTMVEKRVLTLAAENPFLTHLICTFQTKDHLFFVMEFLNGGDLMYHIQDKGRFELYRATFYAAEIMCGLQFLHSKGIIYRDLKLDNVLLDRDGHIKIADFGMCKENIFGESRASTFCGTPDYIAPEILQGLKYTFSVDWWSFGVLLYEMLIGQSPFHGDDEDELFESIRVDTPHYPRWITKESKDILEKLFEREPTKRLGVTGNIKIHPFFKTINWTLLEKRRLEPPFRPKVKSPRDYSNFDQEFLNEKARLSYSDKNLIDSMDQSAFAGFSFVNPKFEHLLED
Chain of JAK2(h) (O60674 whole entry): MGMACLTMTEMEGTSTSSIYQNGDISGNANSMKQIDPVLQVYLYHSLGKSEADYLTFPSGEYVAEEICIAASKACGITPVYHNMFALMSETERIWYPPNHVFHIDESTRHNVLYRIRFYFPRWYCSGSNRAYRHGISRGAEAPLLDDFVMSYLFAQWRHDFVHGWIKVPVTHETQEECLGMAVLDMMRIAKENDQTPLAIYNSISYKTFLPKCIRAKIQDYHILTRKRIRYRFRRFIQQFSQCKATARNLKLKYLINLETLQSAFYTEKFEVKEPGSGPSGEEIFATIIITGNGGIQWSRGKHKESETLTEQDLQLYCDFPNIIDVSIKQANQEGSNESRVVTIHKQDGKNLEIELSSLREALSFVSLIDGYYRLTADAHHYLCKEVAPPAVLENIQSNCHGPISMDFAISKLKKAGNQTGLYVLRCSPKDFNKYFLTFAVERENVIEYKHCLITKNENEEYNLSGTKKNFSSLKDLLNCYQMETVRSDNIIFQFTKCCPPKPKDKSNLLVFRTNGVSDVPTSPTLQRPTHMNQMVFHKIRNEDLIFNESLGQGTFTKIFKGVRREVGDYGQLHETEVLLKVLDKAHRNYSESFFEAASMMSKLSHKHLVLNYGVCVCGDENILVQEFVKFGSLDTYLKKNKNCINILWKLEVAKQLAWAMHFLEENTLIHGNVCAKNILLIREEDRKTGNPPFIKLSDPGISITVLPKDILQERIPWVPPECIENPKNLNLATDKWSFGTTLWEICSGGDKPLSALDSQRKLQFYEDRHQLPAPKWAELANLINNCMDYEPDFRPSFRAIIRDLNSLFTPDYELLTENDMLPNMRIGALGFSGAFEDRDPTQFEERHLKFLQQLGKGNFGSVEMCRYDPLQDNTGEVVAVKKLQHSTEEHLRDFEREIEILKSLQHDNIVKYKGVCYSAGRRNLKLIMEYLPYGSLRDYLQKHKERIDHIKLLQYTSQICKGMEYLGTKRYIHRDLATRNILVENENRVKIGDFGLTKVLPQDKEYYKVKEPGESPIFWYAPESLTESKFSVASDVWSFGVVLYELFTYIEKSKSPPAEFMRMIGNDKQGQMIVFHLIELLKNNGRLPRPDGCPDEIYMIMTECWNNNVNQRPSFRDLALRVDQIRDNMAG
T2 sequence (Q9UQM7 whole entry F89G): as the sequence (Q9UQM7 whole entry) above, with F89G counted along it
T2 sequence (Q13224 836-1484 S1303A partner limits assumed): as the sequence (Q13224 836-1484 S1303A partner limits assumed) above

Regarding `NCCNc1cccc(-c2ccnc3[nH]c4ccccc4c23)c1` [AS283], in assay [1], the “LTP induction in wildtype mouse slices” value is “failed to block LTP induction”. For the same molecule, the “ionomycin-induced CaMKII/GluN2B co-localization in HEK293 cells” value in assay [2] is “failed to inhibit CaMKII binding to GluN2B”. Also, the “residual kinase activity, MAPK2(h)” value at MAPK2(h) is 97 percentage of maximal activity. Moreover, the “residual kinase activity, Pim-3(h)” value at Pim-3(h) is 97 percentage of maximal activity. In addition, the “residual kinase activity, Ret(h)” value on Ret(h) was 44 percentage of maximal activity. Moreover, the “residual kinase activity, JAK2(h)” value on JAK2(h) is given as 121 percentage of maximal activity. The “residual kinase activity, FGFR1(h)” value on FGFR1(h) is 58 percentage of maximal activity. Besides, the “residual kinase activity, CDK2/cyclinE(h)” value on CDK2/cyclinE(h) is 41 percentage of maximal activity. The “residual kinase activity, PKCδ(h)” value at PKCδ(h) is reported as 39 percentage of maximal activity.
Consider `CC(C)(C)n1nc(Cc2cccc3ccccc23)c2c(N)ncnc21` [NM-PP1], for which the “binding of CaMKII F89G to GluN2B in HEK cells after ionomycin” value in assay [3] was “fully enabled binding”.

(Values after patent US20260263429A1, “INHIBITORS OF CA 2+/CALMODULIN-DEPENDENT PROTEIN KINASE II (CAMKII) THAT DO NOT INHIBIT LONG-TERM POTENTIATION (LTP) INDUCTION AND THERAPEUTIC USES THEREOF” (The Regents of the University of Colorado, A Body Corporate, priority 2023, published 2026).)
